Source: patent US20070191461A1, “USE OF BENZO-HETEROARYL SULFAMIDE DERIVATIVES FOR THE TREATMENT OF MIGRAINE” (priority 2006, published 2007)
Several values for one entry are separate records, joined by “and”; a condition that tells them apart may be missing. Equal entries are not always repeated.

What was measured:
[1] = tested on: KCl-induced cortical spreading depression; test: Cortical spreading depression (CSD) assay as model of migraine; type: in vivo, Sprague-Dawley rats; conditions: rats, 100 mg/kg/day p.o. for 35 days
Experimental: Cortical spreading depression (CSD) has been implicated in migraine and as a headache trigger, and can be evoked in experimental animals by electrical or chemical stimulation (Kunkler & Kraig, 2003; Lauritzen et al., 1982; Moskowitz, 1984).
(§1) Adult male Sprague-Dawley rats (250-600 g) were divided into two treatment groups: vehicle (0.5% methylcellulose; n=13) and Compound #1 (100 mg/kg/day, p.o.; n=7). Results were compared to historical positive controls with valproic acid at 200 mg/kg/day, i.p.
Vehicle or Compound #1 was administered orally once a day for 35 days. On the last day of treatment, rats continued to receive food and water ad libitum, and were given their daily oral dose of vehicle or Compound #1 approximately 1.5 h prior to CSD testing. Rats were anesthetized using isoflurane and intubated via a tracheotomy for mechanical ventilation. Body temperature, blood pressure and heart rate were monitored throughout the procedure to ensure homeostasis. […] The steady (DC) potential and electrocorticogram (EcoG) were recorded with glass micropipettes filled with 200 mM NaCl, […] below the dural surface. […] The number of KCL-induced CSDs was counted for 2 hours. Propagation speed was calculated from the distance (mm) between the recording electrodes 1 and 2, divided by the latency (min) between the CSDs recorded at these sites. […]

[2] = Body weight and systemic physiology monitoring during CSD testing; type: in vivo, Sprague-Dawley rats; conditions: rats, 100 mg/kg/day p.o. for 35 days
Experimental: as §1
Vehicle or Compound #1 was administered orally once a day for 35 days. On the last day of treatment, rats continued to receive food and water ad libitum, and were given their daily oral dose of vehicle or Compound #1 approximately 1.5 h prior to CSD testing. Rats were anesthetized using isoflurane and intubated via a tracheotomy for mechanical ventilation. Body temperature, blood pressure and heart rate were monitored throughout the procedure to ensure homeostasis. Rats were placed in a stereotaxic frame and three burr holes were drilled under saline cooling over the right hemisphere at the following coordinates (mm from bregma): (1) posterior 4.5, lateral 2.0 (occipital cortex): KCL application; (2) posterior 0.5, lateral 2.0 (parietal cortex): recording site 1; (3) anterior 2, lateral 2 (frontal cortex): recording site 2. Dura overlying the occipital cortex was gently removed. The steady (DC) potential and electrocorticogram (EcoG) were recorded with glass micropipettes filled with 200 mM NaCl, […] below the dural surface. An Ag/AgCl reference electrode was placed subcutaneously in the neck. Following surgical preparation, the cortex was allowed to recover for 30 minutes under saline irrigation. Cortical spreading depressions were initiated by placing a cotton ball soaked with 1 M KCl on the pial surface. The number of KCL-induced CSDs was counted for 2 hours. Propagation speed was calculated from the distance (mm) between the recording electrodes 1 and 2, divided by the latency (min) between the CSDs recorded at these sites.

[3] = tested on: KCl-induced cortical spreading depression; conditions: historical positive control, 200 mg/kg/day i.p. for 4 weeks; saline vehicle 18; p<0.05; cited from earlier work

For `NS(=O)(=O)NCc1csc2ccccc12` [Compound #1, N-(benzo[b]thien-3-ylmethyl)-sulfamide], the “Propagation Speed” value ([1]; KCl-induced CSD, vehicle 3.2 ± 1, p=0.06) was 2.8 ± 0.3 mm/min, the “CSDs (2 h) ≧5 mV (number of KCl-induced cortical spreading depressions)” value ([1]; last dose approx. 1.5 h before testing, topical 1 M KCl, counted for 2 hours, vehicle 16 ± 3, p=0.12) was 12 and 12 ± 5 and the “Physiological monitoring, including arterial pH, pCO2, pO2 and blood pressure, versus vehicle” value [2] was “did not differ between the groups”. For the same compound, the “Systemic Physiology: BP (blood pressure)” value ([2]; during CSD testing) was 102 ± 6, the “Systemic Physiology: pCO2” value ([2]; during CSD testing) was 42 ± 6 and the “Systemic Physiology: pH (arterial)” value ([2]; during CSD testing) was 7.4 ± 0.05. For the same compound, the “Systemic Physiology: pO2” value ([2]; during CSD testing) was 154 ± 23.
For `CCCC(CCC)C(=O)O` [valproate, valproic acid], the “Number of cortical spreading depressions” value [3] is given as 12.
